Experimental data from patent US6358961B1, “Farnesyltransferase inhibiting quinazolinones” (Jannsen-Cilag S.A., priority 1997, dated 2002).

What was measured:
[1] = test system: NIH 3T3 cells transformed by the T24 activated human H-ras gene; test: Ras-Transformed Cell Phenotype Reversion Assay; format: cell-based, mouse; details: NIH3T3; cell counts after 72 hours proliferation; test concentrations 5, 10, 50, 100 and 500 nM
Description: “Ras-Transformed Cell Phenotype Reversion Assay”
Insertion of activated oncogenes such as the mutant ras gene into mouse NIH 3T3 cells converts the cells to a transformed phenotype, The cells become tumorigenic, display anchorage independent growth in semi-solid medium and lose contact inhibition. Loss of contact inhibition produces cell cultures which no longer form uniform monolayers. Rather, the cells pile up into multicellular nodules and grow to very high saturation densities in plastic tissue culture dishes. Agents such as protein famesyl transferase inhibitors which revert the ras transformed phenotype restore the uniform monolayer growth pattern to cells in culture. This reversion is easily monitored by counting the number of cells in tissue culture plates. Transformed cells will achieve higher cell numbers than cells which have reverted to an untransformed phenotype. Compounds which revert the transformed phenotype should produce antitumor effects in tumors bearing ras gene mutations.
Compounds are screened in tissue culture in NIH 3T3 cells transformed by the T24 activated human H-ras gene. […] Then the cells are detached in 1.0 ml trypsin-EDTA cell dissociation medium and counted on a Coulter particle counter.
Cell numbers expressed as cells per well are measured using a Coulter Particle Counter. […]

SMILES | melting point [°C] | IC50 [1] [nM]
O=c1nc(-c2cccc(Cl)c2)c2cc(C(c3ccc(Cl)cc3)n3ccnc3)ccc2[nH]1 (racemic) [Compound 1, (±)-4-(3-chlorophenyl)-6[(4-chlorophenyl)-1H-imidazol-1-ylmethyl]-2(1H)-quinazolinone] | 255.1 | –
O=c1nc(-c2cccc(Cl)c2)c2cc(C(c3ccc(Cl)cc3)n3ccnc3)ccc2n1Cc1ccncc1 (racemic) [Compound 3, (±)-4-(3-chlorophenyl)-6-[(4-chlorophenyl)-1H-imidazol-1-ylmethyl]-1-(4-pyridinylmethyl)-2(1H)-quinazolinone] | 61.4 | –
O=C1Nc2ccc(C(c3ccc(Cl)cc3)n3ccnc3)cc2C(c2cccc(Cl)c2)N1 (racemic) [Compound 8, (±)-4-(3-chlorophenyl)-6-[(4-chlorophenyl)-1H-imidazol-1-ylmethyl]-3,4-dihydro-2(1H)-quinazolinone] | 177.1 | –
CN1C(=O)NC(c2cccc(Cl)c2)c2cc(C(c3ccc(Cl)cc3)c3cncn3C)ccc21 (racemic) [Compound 14, (±)-4-(3-chlorophenyl)-6-[(4-chlorophenyl)(1-methyl-1H-imidazol-5-yl)methyl]-3,4-dihydro-1-methyl-2(1H)-quinazolinone] | – | < 500
